Earlier results, collected in patent US6831041B2, “Oil suspension concentrates based on a cyclohexenone oxime ether lithium salt and the use thereof as plant protection agents” (BASF Aktiengesellschaft, priority 2000, dated 2004).

Details: formulated together with calcium glyphosate as oil suspension concentrate

stability in formulation (in words): insufficient stability
Structure (SMILES): CCCC(CC(C)=NOCC=CCl)C1=C(O)CC(C2CCCOC2)CC1=O (stereo not shown) [2-{1-[2-(3-chloroallyloxy)iminopropyl]-butyl}-3-hydroxy-5-(tetrahydropyran-3-yl)cyclohex-2-enone]
